Measurements: publication PMC8774970 (Foods, 2022)
Marks after values point to notes of the source that are not given here.

Columns and labels:
[1] = Hydroxyl radical scavenging assay
Experimental: (§1) All experiments were realized in 96-well microplates, and the absorbance measurements were carried out on a Multimode Plate Reader, EnSpire, PerkinElmer, Waltham (US) United States of America. […] The results were expressed as 50% inhibition (IC50) and absorbance at 0.5 (A0.5) concentrations that are able to inhibit/block/chelate 50% or reduce the absorbance to 0.5 of the radical, enzyme catalytic sites or the formation of metallic complexes/cations.
It was evaluated according to the modified method of Smirnoff and Cumbes. […] The microplate was incubated for 30 min at 37 °C, and 36 μL H2O was added; immediately, the absorbance was measured at 510 nm. The result was given as IC50 value.

[2] = Galvinoxyl radical (GOR) scavenging assay
Experimental: as §1
The result was given as IC50 value.

[3] = O-Phenanthroline assay; conditions: concentration at 0.50 absorbance
Experimental: as §1
Next, it was incubated for 20 min at 30 °C before measuring the absorbance at 510 nm. The result was given as A0.5 value.

[4] = Cupric reducing antioxidant capacity (CUPRAC) assay; conditions: concentration at 0.50 absorbance
Experimental: as §1
The method described by Reference was used with no modifications. […] The result was given as A0.5 value.

[5] = Silver nanoparticle-based method (SNP)
Experimental: as §1
The reduction of Ag^+ to spherical silver nanoparticles (SNPs) was developed by Özyürek et al.. […] The microplate was incubated for 30 min at 25 °C, and the absorbance was read at 423 nm. […]

[6] = Reducing power test; conditions: concentration at 0.50 absorbance
Experimental: as §1
Later, 50 μL of TCA (trichloroacetic acid) (10%) and 10 μL of ferric chloride (0.1%) were added before finally measuring the mixture’s absorbance at 700 nm.

[7] = β-Carotene/linoleic acid bleaching test
Experimental: as §1
Proceeding as described by Marco [23], with minor changes: 0.5 mg of β-carotene, 1 mL of chloroform, 25 μL of linoleic acid, and 200 μL of Tween 40 were added, forming an emulsified mixture. Then, it was evaporated under vacuum, and 50 mL of hydrogen peroxide (30%) were added with vigorous shaking. The absorbance at 470 nm should give a value between (0.8–0.9).

[8] = ABTS scavenging procedure
Experimental: as §1
The ABTS^•+ scavenging ability was performed spectrophotometrically according to the modified procedure of Re et al.. First, the ABTS^•+ was prepared as follows: 2 mM of ABTS was dissolved in H2O with 2.45 mM potassium persulfate (K2S2O8), and the mixture was conserved at ambient temperature for 16 h in obscurity. […] Thereafter, the microplate was incubated for 10 min before measuring the absorbance at 734 nm. The equation below (*) was used to calculate the inhibition percentage of ABTS radical, and results were presented as IC50 values. I% = ((Ac − As)/Ac) × 100 (*)(1)

[9] = DPPH scavenging procedure
Experimental: as §1
Results were provided as IC50 values, and the I% were calculated using the above formula (*).

[10] = target: T1, urease (Canavalia ensiformis, UniProt P07374); type: biochemical, Canavalia ensiformis (Jack bean)
T1 construct: purchased Sigma Aldrich
Experimental: Ultrapure water was obtained by a Milli-Q system (Millipore, Bedford, MA, USA).
All experiments were realized in 96-well microplates, and the absorbance measurements were carried out on a Multimode Plate Reader, EnSpire, PerkinElmer, Waltham (US) United States of America. […] The EamCE solution was prepared at seven different concentrations, (800, 400, 200, 100, 50, 25, 12.5 µg/mL) and every assay was realized in triplicate. The results were expressed as 50% inhibition (IC50) and absorbance at 0.5 (A0.5) concentrations that are able to inhibit/block/chelate 50% or reduce the absorbance to 0.5 of the radical, enzyme catalytic sites or the formation of metallic complexes/cations.
Urease inhibitory capability was determined by measuring ammonia production using the indophenol method [35]. Briefly, the reaction mixture consisted of 25 μL of enzyme solution ((5 U/mL) (Jack bean urease)), 10 μL of the EamCE solution, and 50 μL of urea substrate solution, then it was incubated at 30 °C for 15 min. Then, 45 μL of phenol reagent (2 g of phenol (C6H5OH) in 25 mL H2O + 25 mg of Na2[Fe(CN)5NO],2H2O in 25 mL H2O) and 70 μL of basic reagent (0.7125 g of NaOH in 25 mL H2O + 1.175 mL of NaOCl in 25 mL H2O) were added later. After 50 min of incubation, the absorbance was measured at 630 nm, and result was given as IC50 value.

[11] = Superoxide alkaline DMSO test
Experimental: as §1
The superoxide radical was produced as described Kunchandy’s method: 30 µL of NBT (nitroblue tetrazolium) (1 mg/mL) and 40 μL of sample were added to 130 μL alkaline DMSO (1.0 mL DMSO, 5 mMNaOH, 100 µL H2O). The absorbance of the reaction mixture was measured at 560 nm, and results were provided as IC50 values.

T1 sequence (P07374 whole entry, looked up): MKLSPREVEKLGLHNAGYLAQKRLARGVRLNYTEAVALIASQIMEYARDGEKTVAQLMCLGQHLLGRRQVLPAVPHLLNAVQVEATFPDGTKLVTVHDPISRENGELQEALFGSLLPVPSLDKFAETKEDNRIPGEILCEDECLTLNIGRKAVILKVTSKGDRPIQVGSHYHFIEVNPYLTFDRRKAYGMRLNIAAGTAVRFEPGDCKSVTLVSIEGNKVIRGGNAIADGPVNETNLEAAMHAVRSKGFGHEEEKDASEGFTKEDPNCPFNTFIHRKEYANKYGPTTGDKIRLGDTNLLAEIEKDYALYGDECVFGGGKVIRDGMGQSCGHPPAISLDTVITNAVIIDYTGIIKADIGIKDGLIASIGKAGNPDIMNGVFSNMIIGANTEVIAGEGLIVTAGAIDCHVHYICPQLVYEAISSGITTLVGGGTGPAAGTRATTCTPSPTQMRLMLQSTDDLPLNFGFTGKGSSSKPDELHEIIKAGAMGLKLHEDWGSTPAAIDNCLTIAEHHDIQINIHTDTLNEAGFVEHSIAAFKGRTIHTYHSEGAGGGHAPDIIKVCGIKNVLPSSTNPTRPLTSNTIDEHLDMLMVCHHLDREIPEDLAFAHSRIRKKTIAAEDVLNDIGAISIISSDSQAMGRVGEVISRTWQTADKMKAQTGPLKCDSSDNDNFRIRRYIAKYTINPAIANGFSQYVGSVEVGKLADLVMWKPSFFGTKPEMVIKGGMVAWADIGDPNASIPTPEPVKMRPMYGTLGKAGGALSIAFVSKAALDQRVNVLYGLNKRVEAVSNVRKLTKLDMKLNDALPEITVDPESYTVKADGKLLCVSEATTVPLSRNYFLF

Compound | Hydroxyl Radical (IC50) [1] | GOR (IC50) [2] | Phenonthroline (A0.5) [3] | CUPRAC (A0.5) [4] | SNP [5] | Reducing Power (A0.5) [6] | Beta Carotene (IC50) [7] | ABTS (IC50) [8] | DPPH (IC50) [9] | Anti-Urease IC50 [10] | DMSO Alcalin (IC50) [11]
O=C1O[C@H]([C@@H](O)CO)C(O)=C1O [Ascorbic Acid] | 32.33 ± 1.17 ^b µg/mL | 5.02 ± 0.01 ^d µg/mL | 3.08 ± 0.02 ^d µg/mL | 8.31 ± 0.15 ^d µg/mL | 7.14 ± 0.05 ^b µg/mL | 6.77 ± 1.15 ^c µg/mL |  |  |  |  | 
COc1ccc(O)c(C(C)(C)C)c1 [BHA] |  | 3.32 ± 0.18 ^c µg/mL | 0.93 ± 0.07 ^c µg/mL | 5.35 ± 0.71 ^c µg/mL |  |  | 0.91 ± 0.01 ^c µg/mL | 1.81 ± 0.10 ^c µg/mL | 6.14 ± 0.41 ^c µg/mL |  | 
Cc1cc(C(C)(C)C)c(O)c(C(C)(C)C)c1 [BHT] |  | 5.38 ± 0.06 ^b µg/mL | 2.24 ± 0.17 ^b µg/mL | 8.97 ± 3.94 ^b µg/mL |  |  | 1.05 ± 0.03 ^b µg/mL | 1.29 ± 0.30 ^b µg/mL | 12.99 ± 0.41 ^b µg/mL |  | 
NC(N)=S [Thiourea] |  |  |  |  |  |  |  |  |  | 11.57 ± 0.68 ^b µg/mL | 
Cc1c(C)c2c(c(C)c1O)CCC(C)(C(=O)O)O2 (stereo not shown) [Trolox] |  | 4.31 ± 0.05 ^e µg/mL | 5.21 ± 0.27 ^e µg/mL | 8.69 ± 0.14 ^e µg/mL | 34.17 ± 1.23 ^c µg/mL | 5.25 ± 0.20 ^e µg/mL |  | 3.21 ± 0.06 ^d µg/mL | 5.12 ± 0.21 ^e µg/mL |  | 
Cc1c(C)c2c(c(C)c1O)CC[C@@](C)(CCC[C@H](C)CCC[C@H](C)CCCC(C)C)O2 [α-Tocopherol] |  |  |  |  |  | 34.93 ± 2.38 ^b µg/mL |  |  | 13.02 ± 5.17 ^d µg/mL |  | ˂3.125 µg/mL
Tannic Acid |  |  |  |  |  | 5.39 ± 0.91 ^d µg/mL |  |  |  |  | <3.125 µg/mL
